{
  "source": "patent US9605064B2",
  "about": "“Methods and compositions for treatment of skin disorders” (AbbVie Biotechnology Ltd, priority 2006, dated 2017)",
  "key": {"[1]": {"test_system": "patients with moderate to severe chronic plaque psoriasis", "experiment": "PASI response and PGA, 120-week open-label extension study", "type": "in vivo, human", "details": "40 mg eow, as observed", "text": "Exclusion criteria included prior TNF-antagonist therapy."}, "[2]": {"test_system": "patients with severe psoriasis who were non-responders to high-dosage etanercept", "experiment": "PASI response, open-label adalimumab in non-responders to high-dosage etanercept", "type": "in vivo, human", "procedure": "Details on clinical course and adverse events were recorded, along with measurements of PASI and Dermatology Life Quality Index (DLQI) at baseline and Weeks 2, 4, 8, and 12.\n(§1) This was an open-label prospective evaluation of adalimumab (HUMIRA®, Abbott Laboratories, Abbott Park, Ill., USA). Patients who were non-responders to etanercept were recruited from the Severe Psoriasis Clinic at St John's Institute of Dermatology in London. […] Inclusion criteria included male and female patients more than 18 years of age with plaque psoriasis (Table 98). The study was approved by St Thomas' Research Ethics Committee, and informed consent was obtained from all participants.\nThe study period was 12 weeks. […] Patients were able to withdraw from the study at any stage. They were permitted to continue topical treatments at stable dosages throughout the study, but could not use concomitant systemic therapy for psoriasis.\nAt each clinical visit PASI, DLQI, and percentage body surface area (% BSA) affected were assessed and recorded. In addition, patients received medical assessments together with monitoring laboratory investigations (FIG. 11).\nThe secondary efficacy endpoint was PASI 75 response rate at Week 12."}, "[3]": {"test_system": "patients with severe psoriasis who were non-responders to high-dosage etanercept", "experiment": "ESR and CRP, open-label adalimumab in non-responders to high-dosage etanercept", "type": "in vivo, human", "details": "Week 12; individual patients 1-5 (c1-c5); weekly adalimumab", "text": "as §1"}, "[4]": {"test_system": "patients with moderate to severe chronic plaque psoriasis", "details": "in vivo", "excerpt": "The study was a multi-center, 16-week, randomized controlled Phase III trial. The main inclusion criteria included: • Clinical diagnosis of psoriasis for ≧1 year • Affected body surface area (BSA)≧10% • Psoriasis Area and Severity Index (PASI)≧10 The main exclusion criteria was previous use of MTX or systemic anti-TNF therapy."}, "[5]": {"test_system": "adult patients with moderate to severe chronic plaque psoriasis", "details": "in vivo"}, "hepatitis B virus (HBV)": {"test_system": "hepatitis B virus (HBV)", "details": "cited from earlier work"}, "[6]": {"test_system": "patients with moderate to severe chronic plaque psoriasis", "experiment": "Adverse events, open-label extension of CHAMPION"}, "[7]": {"test_system": "patients with chronic plaque psoriasis", "experiment": "Safety, 16-week open-label Phase IIIb trial after suboptimal response to ETN, MTX or NB-UVB", "excerpt": "This 16-week, multicenter, open-label, Phase IIIb trial enrolled patients with chronic plaque psoriasis who were having a suboptimal response to ETN (Physician's Global Assessment [PGA]≧mild with months of therapy, or ≧3 months of therapy and deterioration of efficacy), MTX (PGA≧mild with ≧4 months of therapy), or narrow-band ultraviolet B (NB-UVB) phototherapy (PGA moderate with months of therapy). […] The primary endpoint was the proportion of patients who achieved PGA of clear or minimal at week 16. A secondary endpoint was the proportion achieving ≧1 grade of PGA improvement. Safety was assessed throughout the study. Efficacy analyses were intention to treat, with nonresponder imputation used for missing data. Efficacy and safety results were analyzed overall and for each prior-treatment group."}, "[8]": {"test_system": "patients with moderate to severe plaque psoriasis", "experiment": "Adverse events and laboratory abnormalities, 12-week open-label weekly therapy then randomized eow or withdrawal"}, "[9]": {"details": "through Week 24 of the OLE (N = 95), AEs occurring ≧5% of patients"}, "[10]": {"details": "through Week 24 of the OLE (N = 95), MTX patients transitioned to adalimumab 40 mg eow"}, "[11]": {"details": "Double-blind period Weeks 12-24, 40 mg eow (N = 68)"}, "[12]": {"details": "Open-label period Weeks 0-11, 40 mg weekly (N = 148)"}},
  "note": "Values joined by “and” are separate entries in the source; they are usually repeats but may differ in a detail not shown here. Equal values may be shown once. Marks after values point to notes of the source that are not given here.",
  "data": [
    {"substance": "Adalimumab: a human anti-TNF mAb, described in U.S. Pat. No. 6,090,382 as D2E7 (HUMIRA, Abbott Laboratories)", "values": [
      {"measurement": "PASI 50 response, % Patients", "setting": "[1]; Week 12", "result": 78.7, "unit": "%"},
      {"measurement": "PASI 75 response, % Patients", "setting": "[1]; Week 12", "result": 56.2, "unit": "%"},
      {"measurement": "PASI 90 response, % Patients", "setting": "[1]; Week 12", "result": 29.2, "unit": "%"},
      {"measurement": "PASI 100 response, % Patients", "setting": "[1]; Week 12", "result": 11.2, "unit": "%"},
      {"measurement": "PASI 50 response, % Patients", "setting": "[1]; Week 24", "result": 86.7, "unit": "%"},
      {"measurement": "PASI 75 response, % Patients", "setting": "[1]; Week 24", "result": 74.7, "unit": "%"},
      {"measurement": "PASI 90 response, % Patients", "setting": "[1]; Week 24", "result": 52, "unit": "%"},
      {"measurement": "PASI 100 response, % Patients", "setting": "[1]; Week 24", "result": 20, "unit": "%"},
      {"measurement": "PASI 50 response, % Patients", "setting": "[1]; Week 48", "result": 96.7, "unit": "%"},
      {"measurement": "PASI 75 response, % Patients", "setting": "[1]; Week 48", "result": 81.7, "unit": "%"},
      {"measurement": "PASI 90 response, % Patients", "setting": "[1]; Week 48", "result": 61.7, "unit": "%"},
      {"measurement": "PASI 100 response, % Patients", "setting": "[1]; Week 48", "result": 31.7, "unit": "%"},
      {"measurement": "PASI 50 response, % Patients", "setting": "[1]; Week 72", "result": 96.2, "unit": "%"},
      {"measurement": "PASI 75 response, % Patients", "setting": "[1]; Week 72", "result": 73.1, "unit": "%"},
      {"measurement": "PASI 90 response, % Patients", "setting": "[1]; Week 72", "result": 53.8, "unit": "%"},
      {"measurement": "PASI 100 response, % Patients", "setting": "[1]; Week 72", "result": 25, "unit": "%"},
      {"measurement": "PASI 50 response, % Patients", "setting": "[1]; Week 96", "result": 92.5, "unit": "%"},
      {"measurement": "PASI 75 response, % Patients", "setting": "[1]; Week 96", "result": 75.5, "unit": "%"},
      {"measurement": "PASI 90 response, % Patients", "setting": "[1]; Week 96", "result": 52.8, "unit": "%"},
      {"measurement": "PASI 100 response, % Patients", "setting": "[1]; Week 96", "result": 24.5, "unit": "%"},
      {"measurement": "PASI 50 response, % Patients", "setting": "[1]; Week 120", "result": 93.9, "unit": "%"},
      {"measurement": "PASI 75 response, % Patients", "setting": "[1]; Week 120", "result": 77.6, "unit": "%"},
      {"measurement": "PASI 90 response, % Patients", "setting": "[1]; Week 120", "result": 53.1, "unit": "%"},
      {"measurement": "PASI 100 response, % Patients", "setting": "[1]; Week 120", "result": 28.6, "unit": "%"},
      {"measurement": "patients who achieved at least PASI 50", "setting": "[2]; 40 mg weekly, Week 12", "result": 80, "unit": "%"},
      {"measurement": "PASI 50 response", "setting": "[2]; Patient 1", "result": "non-responder"},
      {"measurement": "time at which PASI 50 was achieved", "setting": "[2]; Patient 2", "result": "≤ 8", "unit": "Week"},
      {"measurement": "time at which PASI 75 was reached", "setting": "[2]; Patient 2", "result": 12, "unit": "Week"},
      {"measurement": "time at which PASI 50 was achieved", "setting": "[2]; Patient 3", "result": "≤ 4", "unit": "Week"},
      {"measurement": "time at which PASI 50 was achieved", "setting": "[2]; Patient 4", "result": "≤ 2", "unit": "Week"},
      {"measurement": "time at which PASI 75 was reached", "setting": "[2]; Patient 4", "result": 4, "unit": "Week"},
      {"measurement": "time at which PASI 50 was achieved", "setting": "[2]; Patient 5", "result": "≤ 12", "unit": "Week"},
      {"measurement": "PASI", "setting": "[2]; Week 2, individual patients 1-5 (c1-c5), weekly adalimumab", "result": "23.4 and 23.6 and 21.6 and 11.2 and 22.9"},
      {"measurement": "PASI", "setting": "[2]; Week 4, individual patients 1-5 (c1-c5), weekly adalimumab", "result": "26.7 and 20.1 and 8.70 and 7.00 and 23.6"},
      {"measurement": "PASI", "setting": "[2]; Week 8, individual patients 1-5 (c1-c5), weekly adalimumab", "result": "18.2 and 12.3 and 8.40 and 19.6"},
      {"measurement": "PASI", "setting": "[2]; Week 12, individual patients 1-5 (c1-c5), weekly adalimumab", "result": "21.2 and 6.30 and 3.3 and 7.10 and 15.2"},
      {"measurement": "% Improvement in PASI from baseline to Week 12", "setting": "[2]; individual patients 1-5 (c1-c5), weekly adalimumab", "result": "6% and 82% and 93% and 52% and 53%"},
      {"measurement": "CRP", "setting": "[3]", "result": "7 mg/L and < 5 mg/L (3×) and recorded/<5 mg/L"},
      {"measurement": "ESR", "setting": "[3]", "result": "13 mm/hr and 12 mm/hr (2×) and 2 mm/hr"},
      {"measurement": "Any infectious AE", "setting": "[4]", "result": "51 (48) n (%)"},
      {"measurement": "Any infectious SAE", "setting": "[4]", "result": "0 (0) n (%)"},
      {"measurement": "Infectious AEs, percentage", "setting": "[5]", "result": "28.9‡ %"},
      {"measurement": "Upper Respiratory Tract Infection", "setting": "[5]", "result": "59 (7.2) n (%)"},
      {"measurement": "reactivation of hepatitis B virus (HBV)", "setting": "hepatitis B virus (HBV)", "result": "associated with reactivation of hepatitis B virus (HBV)"},
      {"measurement": "rebound", "setting": "[6]; first 24 weeks of the OLE", "result": "No cases of rebound were observed"},
      {"measurement": "Injection-site reaction, Percentage of Patients", "setting": "[6]; [9]", "result": 5, "unit": "%"},
      {"measurement": "Nasopharyngitis, Percentage of Patients", "setting": "[6]; [9]", "result": 6, "unit": "%"},
      {"measurement": "AEs leading to withdrawal, Percentage of Patients", "setting": "[6]; [10]", "result": 1, "unit": "%"},
      {"measurement": "Any AE, Percentage of Patients", "setting": "[6]; [10]", "result": 47, "unit": "%"},
      {"measurement": "Any malignancy, Percentage of Patients", "setting": "[6]; [10]", "result": 0, "unit": "%"},
      {"measurement": "Rebound psoriasis, Percentage of Patients", "setting": "[6]; [10]", "result": 0, "unit": "%"},
      {"measurement": "Serious AE, Percentage of Patients", "setting": "[6]; [10]", "result": 5, "unit": "%"},
      {"measurement": "malignancies", "setting": "[7]; 16-week trial", "result": "no malignancies were reported"},
      {"measurement": "patients with >25% worsening in PASI scores", "setting": "[7]; all patients (2 MTX, 2 ETN)", "result": 2.6, "unit": "%"},
      {"measurement": "patients with serious adverse events", "setting": "[8]; 24-week trial", "result": "Four patients"},
      {"measurement": "tuberculosis or other opportunistic infections, lymphoma, melanoma, other malignancies, demyelinating disorders, lupus-like syndromes, congestive heart failure", "setting": "[8]; 24-week trial", "result": "No patients developed"},
      {"measurement": "Any AE", "setting": "[8]; [11]", "result": "46 (67.6) n (%)"},
      {"measurement": "Any AEs leading to discontinuation", "setting": "[8]; [11]", "result": "2 (2.9) n (%)"},
      {"measurement": "Any SAE", "setting": "[8]; [11]", "result": "2 (2.9) n (%)"},
      {"measurement": "Arthralgia", "setting": "[8]; [11]", "result": "5 (7.4) n (%)"},
      {"measurement": "Headache", "setting": "[8]; [11]", "result": "1 (1.5) n (%)"},
      {"measurement": "Injection site reaction", "setting": "[8]; [11]", "result": "4 (5.9) n (%)"},
      {"measurement": "Nasopharyngitis", "setting": "[8]; [11]", "result": "3 (4.4) n (%)"},
      {"measurement": "Any AE", "setting": "[8]; [12]", "result": "105 (70.9) n (%)"},
      {"measurement": "Any AEs leading to discontinuation", "setting": "[8]; [12]", "result": "1 (0.7) n (%)"},
      {"measurement": "Any SAE", "setting": "[8]; [12]", "result": "2 (1.4) n (%)"},
      {"measurement": "Arthralgia", "setting": "[8]; [12]", "result": "4 (2.7) n (%)"},
      {"measurement": "Headache", "setting": "[8]; [12]", "result": "11 (7.4) n (%)"},
      {"measurement": "Injection site reaction", "setting": "[8]; [12]", "result": "17 (11.5) n (%)"},
      {"measurement": "Nasopharyngitis", "setting": "[8]; [12]", "result": "11 (7.4) n (%)"},
      {"measurement": "ALT elevation greater than 2.5 times the upper limit of normal", "setting": "[8]; Week 12", "result": "No patients"},
      {"measurement": "ALT elevation greater than 2.5 times the upper limit of normal", "setting": "[8]; adalimumab eow group, Week 24", "result": "One patient"},
      {"measurement": "arthralgias", "setting": "[8]; adalimumab eow group, Weeks 12-24", "result": 7.4, "unit": "%"},
      {"measurement": "patients who withdrew because of an adverse event", "setting": "[8]; of the 148 patients who received at least one dose", "result": "three"},
      {"measurement": "rebound (pre-specified definition)", "setting": "[8]; three patients classified by investigators as rebounders", "result": "None of the three patients met the study's pre-specified definition of rebound"}
    ]}
  ]
}
